Assay results taken from patent US6251894A, “1-(1,2-disubstituted piperidinyl)-4 (fused imidazole)-piperidine derivatives” (Janssen Pharmaceuticals N.V., priority 1995, dated 2001).
Where two headings read alike, the source gives them in different places.

Experiments:
[1] = system: Substance P Induced Relaxation of the Pig Coronary Arteries; assay: Antagonism of substance P induced relaxation of the pig coronary arteries; conditions: 30 min incubation
Procedure: Antagonism of Substance P Induced Relaxation of the Pig Coronary Arteries
Segments of coronary arteries taken from pigs (killed by injection of an overdose of sodium pentobarbital) were inverted and mounted for recording of isometric tension in organ baths (volume 20 ml) with the endothelium at the outside. The preparations were bathed in Krebs-Henseleit solution. The solution was kept at 37° C. and gassed with a mixture of O2 /CO2 (95/5). After stabilisation of the preparations, prostaglandin F2α (10^-5 M) was administered to induce a contraction. This was repeated until contractile responses became stable. Then prostaglandin F2α was again administered and substance P (3×10^-10 M and 10^-9 M cumulatively) was added. Substance P induced endothelium dependent relaxations. After washing away the agonists, a known concentration of a compound of formula (I) was added. After an incubation period of 30 minutes, prostaglandin F2α (10^-5 M) and the same concentrations of substance P as described above were again administered in the presence of the compound to be tested.

[2] = system: Substance P Induced Plasma Extravasation; assay: Antagonism of substance P induced plasma extravasation in guinea-pigs; type: in vivo, guinea-pig; conditions: Cavia porcellus, po, p.o., 1 hour prior to substance P
Procedure: Antagonism of Substance P Induced Plasma Extravasation in Guinea-pigs
Plasma travasation was induced by injection of substance P (2 mg/kg) in the femoral artery of female guinea-pigs. Evans Blue dye (30 mg/kg) was injected simultaneously. The test compound or solvent was administered subcutaneous (s.c.) or orally (p.o.) 1 hour prior to substance P injection. 10 minutes after challenge, the animals were checked for blue colouring (a direct measure for plasma extravasation) of the nose, the forepaws, and the conjunctiva. 30 minutes after challenge, the animals were sacrificed by CO2 gas inhalation and checked for blue colouring of the trachea and the urinary bladder. […]

[3] = test compound concentration 3 × 10^-9 (unit not given)
[4] = 10 min, conjunctiva, read-out: lowest active dose (LAD), conjunctiva
[5] = 10 min, forepaws, read-out: lowest active dose (LAD), forepaws
[6] = 10 min, nose, read-out: lowest active dose (LAD), nose
[7] = 0.5 h, trachea, read-out: lowest active dose (LAD), trachea
[8] = 0.5 h, urinary bladder, read-out: lowest active dose (LAD), urinary bladder
[9] = test compound concentration 3 × 10^-8 (unit not given)

SMILES | % inhibition of the response to 10^-9 M substance P [1, 3] | other results
O=C(c1cc(C(F)(F)F)cc(C(F)(F)F)c1)N1CC[C@@H](N2CCC(C3c4ccccc4Cn4c3nc3ccccc34)CC2)C[C@H]1Cc1ccccc1 (mixture of isomers) [Compound 14, (±)-cis-1-[3,5-bis(trifluoromethyl)benzoyl]-4-[4-(6,11-dihydrobenzimidazo[1,2-b]isoquinolin-6-yl)-1-piperidinyl]-2-phenylmethyl)piperidine] | 56.6% | minimal effective dose [2, 4]: 10 mg/kg; minimal effective dose [2, 5]: 10 mg/kg; minimal effective dose [2, 6]: 10 mg/kg; minimal effective dose [2, 7]: 10 mg/kg; minimal effective dose [2, 8]: 10 mg/kg
O=C(c1cc(C(F)(F)F)cc(C(F)(F)F)c1)N1CC[C@@H](N2CCC(C3c4ccccc4Cn4c3nc3ccccc34)CC2)C[C@@H]1Cc1ccccc1 (mixture of isomers) [Compound 15, (±)-trans-1-[3,5-bis(trifluoromethyl)benzoyl]-4-[4-(6,11-dihydrobenzimidazo[1,2-b]isoquinolin-6-yl)-1-piperidinyl]-2-phenylmethyl)piperidine] |  | % inhibition of the response to 10^-9 M substance P [1, 9]: 95.4%; minimal effective dose [2, 4]: 10 mg/kg; minimal effective dose [2, 5]: 10 mg/kg; minimal effective dose [2, 6]: 10 mg/kg; minimal effective dose [2, 7]: 10 mg/kg; minimal effective dose [2, 8]: 10 mg/kg
O=C(c1cc2cc(F)ccc2[nH]1)N1CC[C@H](N2CCC(=C3c4ccccc4CCn4ccnc43)CC2)C[C@@H]1Cc1ccccc1 (relative stereo) [Compound 89] | 1.1% | 
Cc1cc(C)cc(C(=O)N2CC[C@@H](N3CCC4(CC3)c3ccccc3CCn3ccnc34)C[C@H]2Cc2ccccc2)c1 (relative stereo) [Compound 119, (±)-cis-4-(5,6-dihydrospiro[11H-imidazo[2,1-b][3]benzazepine-11,4'-piperidin]-1-yl)-1-(3,5-dimethylbenzoyl)-2-(phenylmethyl)piperidine] | 9.3% | 
O=C(c1cc(C(F)(F)F)cc(C(F)(F)F)c1)N1CCC(N2CCC(C3c4ccccc4CCn4c3nc3ccccc34)CC2)CC1Cc1ccccc1 (stereo not drawn) [Compound 12] |  | % inhibition of the response to 10^-9 M substance P [1, 9]: 93.2%
O=C(c1cc(C(F)(F)F)cc(C(F)(F)F)c1)N1CC[C@H](N2CCC(C3c4ccccc4CCn4c3nc3ccccc34)CC2)C[C@H]1Cc1ccccc1 (stereo partly drawn) [Compound 13] | 74.2% | 
Cc1cc(C)cc(C(=O)N2CCC(N3CCC(=C4c5ccccc5CCn5c(C)cnc54)CC3)CC2Cc2ccccc2)c1 (stereo not drawn) [Compound 28] | 37.4% | 
Cc1cc(C)cc(C(=O)N2CCC(N3CCC(=C4c5cccc(C)c5CCn5ccnc54)CC3)CC2Cc2ccccc2)c1 (stereo not drawn) [Compound 29] | 8.1% | 
Cc1cc(C)cc(C(=O)N2CCC(N3CCC(=C4c5ccn(C)c5CCn5cc(C)nc54)CC3)CC2Cc2ccccc2)c1 (stereo not drawn) [Compound 30] | 15.3% | 
Cc1cc(C)cc(C(=O)N2CCC(N3CCC(=C4c5ccc(Cl)cc5CCn5ccnc54)CC3)CC2Cc2ccccc2)c1 (stereo not drawn) [Compound 31] | 82.7% | 
O=C(c1cc(C(F)(F)F)cc(C(F)(F)F)c1)N1CCC(N2CCC(=C3c4ccc(Cl)cc4CCn4ccnc43)CC2)CC1Cc1ccccc1 (stereo not drawn) [Compound 32] | 71.6% | 
O=C(c1cc(C(F)(F)F)cc(C(F)(F)F)c1)N1CCC(N2CCC(C3c4ccccc4CCn4c3nc3ccccc34)CC2)CC1Cc1ccc(Cl)c(Cl)c1 (stereo not drawn) [Compound 64] | 26.4% | 
Cc1cc(C)cc(C(=O)N2CCC(N3CCC(C4c5ccccc5CCn5c4nc4ccccc45)CC3)CC2Cc2ccccc2)c1 (stereo not drawn) [Compound 65] | 27.3% | 
Cc1cc(C)cc(C(=O)N2CC[C@H](N3CCC(C4c5ccccc5CCn5c4nc4ccccc45)CC3)C[C@H]2Cc2ccccc2)c1 (stereo partly drawn) [Compound 66] | 56.6% | 
O=C(c1cc(C(F)(F)F)cc(C(F)(F)F)c1)N1CCC(N2CCC(C3c4ccccc4CCn4c3nc3ccccc34)CC2)CC1Cc1ccc(F)c(F)c1 (stereo not drawn) [Compound 67] | 64.4% | 
O=C(c1cc(C(F)(F)F)cc(C(F)(F)F)c1)N1CC[C@H](N2CCC(C3c4ccccc4CCn4c3nc3ccccc34)CC2)C[C@H]1Cc1ccc(F)c(F)c1 (stereo partly drawn) [Compound 68] | 93.1% | 
Cc1cc(C)cc(C(=O)N2CCC(N3CCC(C4c5ccccc5Cn5c4nc4ccccc45)CC3)CC2Cc2ccccc2)c1 (stereo not drawn) [Compound 69] | 8% | 
Cc1cc(C)cc(C(=O)N2CC[C@H](N3CCC(C4c5ccccc5Cn5c4nc4ccccc45)CC3)C[C@H]2Cc2ccccc2)c1 (stereo partly drawn) [Compound 70] | 31.2% | 
O=C(c1ccccc1)N1CCC(N2CCC(C3c4ccccc4Cn4c3nc3ccccc34)CC2)CC1Cc1ccccc1 (stereo not drawn) [Compound 73] | 2.8% | 

SMILES | % inhibition of the response to 10^-9 M substance P [1, 3] | other results
O=C(c1cccc(C(F)(F)F)c1)N1CCC(N2CCC(C3c4ccccc4Cn4c3nc3ccccc34)CC2)CC1Cc1ccccc1 (stereo not drawn) [Compound 74] | 8.6% | 
O=C(c1ccccc1)N1CC[C@@H](N2CCC(C3c4ccccc4Cn4c3nc3ccccc34)CC2)C[C@@H]1Cc1ccccc1 (stereo partly drawn) [Compound 75] | 13.7% | 
CC(C(=O)N1CCC(N2CCC(=C3c4ccccc4CCn4ccnc43)CC2)CC1Cc1ccccc1)c1ccccc1 (stereo not drawn) [Compound 85] | 1.8% | 
O=C(c1cccs1)N1CCC(N2CCC(C3c4ccccc4Cn4c3nc3ccccc34)CC2)CC1Cc1ccccc1 (stereo not drawn) [Compound 91] | 9.2% | 
O=C(c1ccc2ccccc2c1)N1CCC(N2CCC(C3c4ccccc4Cn4c3nc3ccccc34)CC2)CC1Cc1ccccc1 (stereo not drawn) [Compound 92] | 6.7% | 
O=C(c1cnc2ccccc2n1)N1CCC(N2CCC(C3c4ccccc4Cn4c3nc3ccccc34)CC2)CC1Cc1ccccc1 (stereo not drawn) [Compound 93] | 3.1% | 
O=C(c1cc2ccccc2s1)N1CCC(N2CCC(C3c4ccccc4Cn4c3nc3ccccc34)CC2)CC1Cc1ccccc1 (stereo not drawn) [Compound 94] | 8.2% | 
O=C(c1ccc2ncsc2c1)N1CCC(N2CCC(C3c4ccccc4Cn4c3nc3ccccc34)CC2)CC1Cc1ccccc1 (stereo not drawn) [Compound 96] | 17.3% | 
Cc1cc(C(=O)N2CC[C@@H](N3CCC(C4c5ccccc5Cn5c4nc4ccccc45)CC3)C[C@@H]2Cc2ccccc2)no1 (stereo partly drawn) [Compound 97] | 5.8% | 
O=C(c1ccc2ccccc2c1)N1CC[C@@H](N2CCC(C3c4ccccc4Cn4c3nc3ccccc34)CC2)C[C@@H]1Cc1ccccc1 (stereo partly drawn) [Compound 98] | 23.2% | 
CC(C(=O)N1CC[C@@H](N2CCC(C3c4ccccc4Cn4c3nc3ccccc34)CC2)C[C@@H]1Cc1ccccc1)c1ccccc1 (stereo partly drawn) [Compound 99] | 18.2% | 
O=C(Nc1cc(C(F)(F)F)cc(C(F)(F)F)c1)N1CC[C@@H](N2CCC(C3c4ccccc4Cn4c3nc3ccccc34)CC2)C[C@@H]1Cc1ccccc1 (stereo partly drawn) [Compound 100] | 13.9% | 
Cc1c(C(=O)N2CC[C@@H](N3CCC(C4c5ccccc5Cn5c4nc4ccccc45)CC3)C[C@@H]2Cc2ccccc2)oc2ccccc12 (stereo partly drawn) [Compound 101] | 11.8% | 
O=C(c1ccc2ncsc2c1)N1CC[C@@H](N2CCC(C3c4ccccc4Cn4c3nc3ccccc34)CC2)C[C@@H]1Cc1ccccc1 (stereo partly drawn) [Compound 102] | 17% | 
O=C(c1ccc(Cl)c(Cl)c1)N1CC[C@@H](N2CCC(C3c4ccccc4Cn4c3nc3ccccc34)CC2)C[C@@H]1Cc1ccccc1 (stereo partly drawn) [Compound 103] | 8.3% | 
Cc1cc(C)cc(C(=O)N2CCC(N3CCC(=C4c5ccccc5OCn5ccnc54)CC3)CC2Cc2ccccc2)c1 (stereo not drawn) [Compound 104] | 83.0% | 
Cc1cc(C)cc(C(=O)N2CC[C@@H](N3CCC(C4c5ccccc5Cn5ccnc54)CC3)C[C@@H]2Cc2ccccc2)c1 (stereo partly drawn) [Compound 109] | 13.5% | 
O=C(c1cc(C(F)(F)F)cc(C(F)(F)F)c1)N1CCC(N2CCC(C3c4ccccc4Cn4ccnc43)CC2)CC1Cc1ccccc1 (stereo not drawn) [Compound 115] | 60.2% | 
O=C(c1cc(C(F)(F)F)cc(C(F)(F)F)c1)N1CC[C@@H](N2CCC(C3c4ccccc4Cn4ccnc43)CC2)C[C@@H]1Cc1ccccc1 (stereo partly drawn) [Compound 116] | 69.6% | 
